Values of other authors, collected in US20070208041A1, “Compositions for the treatment and prevention of heart disease and methods of using same” (priority 2005, published 2007).

How the values were obtained:
[1] = test system: phenylephrine-constricted rat aorta
[2] = allopurinol alone

O=[N+]([O-])OCC(CO[N+](=O)[O-])O[N+](=O)[O-] [GTN]
effect of ALDH-2 inhibitor benomyl on vasodilator response [1]: reduced the vasodilator potency, but not the efficacy

Oc1ncnc2[nH]ncc12 [allopurinol]
outcome of clinical trials [2]: not successful

O=[N+]([O-])O[C@H]1CO[C@H]2[C@@H]1OC[C@H]2O[N+](=O)[O-] [isosorbide dinitrate, 1,4:3,6-dianhydrosorbitol 2,5-dinitrate]
effect of ALDH-2 inhibitor benomyl on vasodilator response [1]: not affected

O=[N+]([O-])O[C@@H]1CO[C@H]2[C@@H]1OC[C@@H]2O [isosorbide-5-mononitrate, 1,4:3,6-dianhydrosorbitol 5-mononitrate]
effect of ALDH-2 inhibitor benomyl on vasodilator response [1]: not affected

O=[N+]([O-])OCC(CO)(CO)CO [pentaerythritol mononitrate]
effect of ALDH-2 inhibitor benomyl on vasodilator response [1]: not affected
